These results are taken from patent publication US20040175813A1, “Mutant P53 proteins and uses thereof” (priority 2002, published 2004).

The experiment concerns MCF-7 c-Jun over-expressing cells. Put plainly: Sensitivity of c-Jun over-expressing cells to apoptotic inducing agents, DNA fragmentation. The format is cell-based, human. Particulars: for DNA fragmentation in cells cultured with the agent: FIG. 4A; for Sensitivity of c-Jun over-expressing cells to the apoptotic inducing agent: compared to vector control, FIG. 3. From the text: Human MCF-7 cells were stably transfected with wild type transcription factor c-jun and expressed high levels of c-Jun protein. The c-Jun over-expressing MCF-7 cells were obtained from Drs. Michael Birrer (National Institutes of Health, National Cancer Institute, Rockville, Md.) and Paul Brown (Baylor College of Medicine, Houston, Texas). A description of the c-Jun over-expressing MCF-7 cells can be found in Yang et al. (1997) and Smith et al. (1999).
Bax levels were not altered (FIG. 2A).

In the case of `CC1=C(/C=C/C(C)=C/C=C/C(C)=C/C(=O)Nc2ccc(O)cc2)C(C)(C)CCC1` [N-(4-hydroxyphenyl) retinamide (4-HPR), N-(4-hydroxyphenyl) retinamide], the “DNA fragmentation in cells cultured with the agent” value is “high degree of DNA fragmentation” and the “Sensitivity of c-Jun over-expressing cells to the apoptotic inducing agent” value is “highly sensitive”.
The matching figures for `Cc1c(C)c2c(c(C)c1OC(=O)CCC(=O)O)CC[C@@](C)(CCC[C@H](C)CCC[C@H](C)CCCC(C)C)O2` [vitamin E succinate (VES), vitamin E succinate]: “high degree of DNA fragmentation” and “highly sensitive”.
As to ceramide, the “DNA fragmentation in cells cultured with the agent” value is “high degree of DNA fragmentation” and the “Sensitivity of c-Jun over-expressing cells to the apoptotic inducing agent” value was “highly sensitive”.
